Results reported in the supplement of paper PMC10307832.

Columns and labels:
Experiment in all cases: relative viability (nuclei count vs DMSO), 5 days (fraction); higher = more cells survive
VX-702 + Palbociclib = compound: NC(=O)c1ccc(N(C(N)=O)c2c(F)cccc2F)nc1-c1ccc(F)cc1F [VX-702] + CC(=O)c1c(C)c2cnc(Nc3ccc(N4CCNCC4)cn3)nc2n(C2CCCC2)c1=O [Palbociclib] (partner 0.5 µM)
Method in brief: (§1)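 Five library-drug doses in √10 steps were combined with a fixed anchor-drug dose, or a single drug was given alone, by pin tool to lung cancer cell lines in 1536-well plates the day after seeding. Nuclei were stained and counted after 5 days. Relative viability is the nuclei count in treated wells over that in vehicle wells, taken as the median of duplicate plates.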

VX-702 + Tozasertib = compound: NC(=O)c1ccc(N(C(N)=O)c2c(F)cccc2F)nc1-c1ccc(F)cc1F [VX-702] + Cc1cc(Nc2cc(N3CCN(C)CC3)nc(Sc3ccc(NC(=O)C4CC4)cc3)n2)n[nH]1 [Tozasertib] (partner 0.1 µM)
Method in brief: as §1

VX-702 + Alpelisib = compound: NC(=O)c1ccc(N(C(N)=O)c2c(F)cccc2F)nc1-c1ccc(F)cc1F [VX-702] + Cc1nc(NC(=O)N2CCC[C@H]2C(N)=O)sc1-c1ccnc(C(C)(C)C(F)(F)F)c1 [Alpelisib] (partner 2 µM)
Method in brief: as §1

VX-702 + Phenformin = compound: NC(=O)c1ccc(N(C(N)=O)c2c(F)cccc2F)nc1-c1ccc(F)cc1F [VX-702] + N=C(N)NC(=N)NCCc1ccccc1 [Phenformin] (partner 250 µM)
Method in brief: as §1

| Cell Line | relative viability (VX-702 + Palbociclib; first compound 0.02 µM) | relative viability (VX-702 + Palbociclib; first compound 0.2 µM) | relative viability (VX-702 + Palbociclib; first compound 0.6325 µM) | relative viability (VX-702 + Palbociclib; first compound 2 µM) | relative viability (VX-702 + Tozasertib; first compound 0.02 µM) | relative viability (VX-702 + Tozasertib; first compound 0.6325 µM) | relative viability (VX-702 + Tozasertib; first compound 2 µM) | relative viability (VX-702 + Alpelisib; first compound 0.02 µM) | relative viability (VX-702 + Alpelisib; first compound 0.6325 µM) | relative viability (VX-702 + Alpelisib; first compound 2 µM) | relative viability (VX-702 + Phenformin; first compound 0.02 µM) | relative viability (VX-702 + Phenformin; first compound 0.6325 µM) | relative viability (VX-702 + Phenformin; first compound 2 µM) | relative viability (VX-702 + Tozasertib; first compound 0.2 µM) | relative viability (VX-702 + Alpelisib; first compound 0.2 µM) | relative viability (VX-702 + Phenformin; first compound 0.2 µM) |
| --- | --- | --- | --- | --- | --- | --- | --- | --- | --- | --- | --- | --- | --- | --- | --- | --- |
| NCI-H650 | 0.349 | 0.327 | 0.326 | 0.348 | 0.662 | 0.801 | 0.893 | 1.11 | 1.15 | 1.34 | 0.515 | 0.44 | 0.524 | – | – | – |
| NCI-H661 | 0.413 | 0.409 | 0.409 | 0.408 | 0.35 | 0.352 | 0.35 | 0.536 | 0.338 | 0.997 | 0.296 | 0.298 | 0.299 | 0.345 | 0.364 | 0.329 |
| NCI-H727 | 0.635 | 0.641 | 0.613 | 0.664 | 0.738 | 0.572 | 0.665 | 0.504 | 0.621 | 0.634 | 0.618 | 0.568 | 0.499 | 0.809 | 0.552 | 0.607 |
| NCI-H838 | 0.225 | 0.214 | 0.198 | 0.227 | 0.233 | 0.303 | 0.291 | 0.965 | 0.95 | 1.23 | 0.607 | 0.557 | 0.669 | 0.285 | 0.893 | 0.609 |
| NCI-H1355 | 0.411 | 0.424 | 0.441 | 0.404 | 0.497 | 0.593 | 0.631 | 0.778 | 0.799 | 0.876 | 0.53 | 0.482 | 0.494 | 0.514 | 0.807 | 0.445 |
| NCI-H1395 | 0.565 | 0.531 | 0.654 | 0.623 | 0.686 | 0.75 | 0.966 | 1.2 | 0.967 | 1.38 | 0.465 | 0.454 | 0.46 | 0.767 | 1.11 | 0.445 |
| NCI-H1437 | 0.308 | 0.318 | 0.319 | 0.318 | 0.412 | 0.405 | 0.45 | 0.943 | 0.911 | 1.14 | 0.326 | 0.31 | 0.313 | 0.432 | 0.858 | 0.352 |
| NCI-H1651 | 0.503 | 0.494 | 0.502 | 0.56 | 0.728 | 0.624 | 0.829 | 0.928 | 0.882 | 1.16 | 0.37 | 0.341 | 0.301 | 0.753 | 0.948 | 0.34 |
| NCI-H1666 | 0.683 | 0.69 | 0.595 | 0.526 | 0.593 | 0.586 | 0.583 | 1 | 0.88 | 0.909 | 0.562 | 0.563 | 0.633 | – | 0.862 | – |
| NCI-H1734 | 0.347 | 0.288 | 0.323 | 0.308 | 0.277 | 0.236 | 0.222 | 0.626 | 0.588 | 0.559 | 0.403 | 0.369 | 0.298 | 0.248 | 0.596 | 0.355 |
| NCI-H1755 | 0.494 | 0.388 | 0.453 | 0.422 | 0.599 | 0.597 | 0.653 | 0.907 | 0.925 | 1.01 | 0.638 | 0.611 | 0.62 | 0.592 | 0.891 | 0.608 |
| NCI-H1793 | 0.294 | – | 0.314 | 0.269 | 0.344 | 0.248 | 0.322 | 0.822 | 0.545 | 0.959 | 0.284 | 0.415 | 0.358 | 0.309 | 0.583 | 0.331 |
| NCI-H1915 | 0.549 | 0.499 | 0.526 | 0.546 | 0.411 | 0.42 | 0.46 | 1.04 | 1.1 | 1.15 | 0.366 | 0.363 | 0.384 | 0.43 | 1.05 | 0.374 |
| NCI-H1944 | 0.303 | 0.326 | 0.337 | 0.32 | 0.252 | 0.252 | 0.253 | 0.76 | 0.818 | 0.605 | 0.228 | 0.2 | 0.161 | 0.245 | 0.775 | 0.202 |
| NCI-H1975 | 0.497 | 0.446 | 0.518 | 0.624 | 0.792 | 0.713 | 0.934 | 0.738 | 0.716 | 0.869 | 0.432 | 0.413 | 0.418 | 0.724 | 0.664 | 0.413 |
| NCI-H1993 | 0.655 | 0.696 | 0.69 | 0.745 | 0.525 | 0.623 | 0.806 | 0.665 | 0.628 | 0.674 | 0.498 | 0.518 | 0.562 | 0.591 | 0.74 | 0.493 |
| NCI-H2009 | 0.247 | 0.25 | 0.257 | 0.246 | 0.765 | 0.728 | 0.988 | 1.21 | 1.24 | 1.35 | 0.572 | 0.577 | 0.617 | 0.729 | 1.22 | 0.56 |
